# Key:
# [1] = Phase one study part 1: single dose plasma PK of free and total DGLA, fasted; type: in vivo, human; conditions: for half-life / Tmax: both sexes, human, plasma, oral; for half-life: read-out: t1/2, median, free DGLA, baseline-corrected plasma (converted)
# Procedure: A single-center, double-blind, randomized, placebo-controlled, two part Phase one study was performed in healthy male and female subjects aged 18 to 45 years inclusive. The primary objective of this study was to assess the safety and plasma pharmacokinetics (PK) of orally administered single doses and orally administered multiple doses of DS107G capsules (once daily for 28 days) in healthy subjects.
# (§1) Subjects were randomly assigned in a 3:1 ratio of DG107G to placebo by block randomization. Single dose part one of the study comprised three cohorts of eight subjects each, with the addition of Cohort four based on evaluation of the safety data of Cohort three by the Safety Monitoring Committee (SMC). A single oral dose of DS107G or matching placebo was administered to fasted subjects in Cohorts one to three (500, 1000, and 2000 mg, respectively) in parallel; subjects in Cohort four were administered a dose of 4000 mg following completion of Cohort three. Subjects in Cohort two received 1000 mg or matching placebo in the fed state at 14 days after the first dose.
# Safety assessments were monitored throughout the study.
# In Part one of the study, subjects in Cohorts one to three were administered a single dose of study drug (either 500-, 1000-, or 2000-mg as 500-mg DS107G capsules or matching placebo capsules) in parallel on study Day 1 after at least an 8-hour fast, according to Table 20. Cohort 4 was initiated following the review of safety data from Cohort 3 by the SMC.
# Analysis of populations included the following: • The Intention-to-Treat (ITT) population consists of all randomized subjects who had been administered at least 1 dose of study drug. • The Per Protocol (PP) population consists of all subjects in the ITT population who had no major protocol violation, as defined in the SAP. • The PK population contains all subjects included in the PP population who had evaluable PK data derived from plasma. A plasma concentration observation was considered a valid, evaluable measurement if the following data were available: study identification number, randomization number, date and time of sampling, dose and concentration. A series of such measurements from the same sample were considered complete if each protocol prescribed concentration was evaluable. Plasma PK data were evaluable by definition if the data contained a complete series of observations. Any missing plasma PK observation would result in incomplete PK data, thus a subject with any missing plasma PK observation was excluded from the PK population. Subjects randomized to placebo were also excluded from the PK population.
# [2] = Phase one study: effect of food on single 1000 mg dose PK (fasted vs fed); type: in vivo, human; conditions: for AUC0-24, mean, free DGLA, baseline-corrected plasma / AUC0-24/Dose, mean, free DGLA, baseline-corrected plasma / AUC0-24/Dose, mean, total DGLA, baseline-corrected plasma / AUC0-inf, mean, free DGLA, baseline-corrected plasma / AUC0-inf/Dose, mean, free DGLA, baseline-corrected plasma / CL/F, mean, free DGLA, baseline-corrected plasma / Cmax, mean, free DGLA, baseline-corrected plasma / Cmax/Dose, mean, free DGLA, baseline-corrected plasma / Cmax/Dose, mean, total DGLA, baseline-corrected plasma / λz, mean, free DGLA, baseline-corrected plasma / λz, mean, total DGLA, baseline-corrected plasma / half-life / Tmax: 1000 mg single dose; for mean baseline-corrected AUC0-24, total DGLA vs free DGLA / mean baseline-corrected Cmax, total DGLA vs free DGLA / half-life / Tmax: 1000 mg; for half-life / Tmax: human, plasma, oral; for half-life: read-out: t1/2, median, free DGLA, baseline-corrected plasma (converted); for Tmax: read-out: tmax, median, free DGLA, baseline-corrected plasma
# Procedure: as §1
# Food effect was evaluated in Cohort two at least 14 days after the first dose at which time a second single dose was administered. Subjects were administered a 1000-mg dose of study drug with 240 mL of water after a 10-hour fasting period and 30 minutes after starting consumption of a meal. Subjects then refrained from food intake for at least 4 hours after dosing. Food consumption was standardized for at least 12 hours after dosing using a standardized high-fat meal (800 to 1000 kcal with 500 to 600 kcal from fat and 250 kcal from carbohydrates). A typical standard test meal consisted of two eggs fried in butter, two strips of bacon, two slices of toast with butter, 120 mL of hash brown potatoes, and 240 mL of whole milk.
# Subjects in Cohort two undergoing evaluation of the food effect on oral 1000 mg DGLA capsules were restricted from food consumption for at least 4 hours after dosing. Food consumption was standardized for at least 12 hours post dose using a standardized high-fat meal.
structure (smiles),measurement,setting,value
"CCCCC/C=C\C/C=C\C/C=C\CCCCCCC(=O)O [DS107G, Dihomo gamma linolenic acid]","AUC0-24, mean, free DGLA, baseline-corrected plasma",[1]; 500 mg single dose,2728.1 ng·h/mL
same,"AUC0-24/Dose, mean, free DGLA, baseline-corrected plasma",[1]; 500 mg single dose,5.46 h/kL
same,"AUC0-24/Dose, mean, total DGLA, baseline-corrected plasma",[1]; 500 mg single dose,79.11 h/kL
same,"AUC0-inf, mean, free DGLA, baseline-corrected plasma",[1]; 500 mg single dose,21483.3 ng·h/mL
same,"AUC0-inf/Dose, mean, free DGLA, baseline-corrected plasma",[1]; 500 mg single dose,42.97 h/kL
same,"AUC0-inf/Dose, mean, total DGLA, baseline-corrected plasma",[1]; 500 mg single dose,8831.93 h/kL
same,"CL/F, mean, free DGLA, baseline-corrected plasma",[1]; 500 mg single dose,0.0306 kL/h
same,"Cmax, mean, free DGLA, baseline-corrected plasma",[1]; 500 mg single dose,934.6 ng/mL
same,"Cmax/Dose, mean, free DGLA, baseline-corrected plasma",[1]; 500 mg single dose,1.869 kL⁻¹
same,"Cmax/Dose, mean, total DGLA, baseline-corrected plasma",[1]; 500 mg single dose,14.400 kL⁻¹
same,"λz, mean, free DGLA, baseline-corrected plasma",[1]; 500 mg single dose,0.0035 h⁻¹
same,"λz, mean, total DGLA, baseline-corrected plasma",[1]; 500 mg single dose,0.0013 h⁻¹
same,"AUC0-24, mean, free DGLA, baseline-corrected plasma",[1]; 1000 mg single dose,3998.5 ng·h/mL
same,"AUC0-24/Dose, mean, free DGLA, baseline-corrected plasma",[1]; 1000 mg single dose,4.00 h/kL
same,"AUC0-24/Dose, mean, total DGLA, baseline-corrected plasma",[1]; 1000 mg single dose,215.37 h/kL
same,"AUC0-inf, mean, free DGLA, baseline-corrected plasma",[1]; 1000 mg single dose,218955.6 ng·h/mL
same,"AUC0-inf/Dose, mean, free DGLA, baseline-corrected plasma",[1]; 1000 mg single dose,218.96 h/kL
same,"AUC0-inf/Dose, mean, total DGLA, baseline-corrected plasma",[1]; 1000 mg single dose,4031.41 h/kL
same,"CL/F, mean, free DGLA, baseline-corrected plasma",[1]; 1000 mg single dose,0.1866 kL/h
same,"Cmax, mean, free DGLA, baseline-corrected plasma",[1]; 1000 mg single dose,1602.8 ng/mL
same,"Cmax/Dose, mean, free DGLA, baseline-corrected plasma",[1]; 1000 mg single dose,1.603 kL⁻¹
same,"Cmax/Dose, mean, total DGLA, baseline-corrected plasma",[1]; 1000 mg single dose,15.750 kL⁻¹
same,"λz, mean, free DGLA, baseline-corrected plasma",[1]; 1000 mg single dose,0.0487 h⁻¹
same,"λz, mean, total DGLA, baseline-corrected plasma",[1]; 1000 mg single dose,0.0136 h⁻¹
same,"AUC0-24, mean, free DGLA, baseline-corrected plasma",[1]; 2000 mg single dose,6429.0 ng·h/mL
same,"AUC0-24/Dose, mean, free DGLA, baseline-corrected plasma",[1]; 2000 mg single dose,3.21 h/kL
same,"AUC0-24/Dose, mean, total DGLA, baseline-corrected plasma",[1]; 2000 mg single dose,105.25 h/kL
same,"AUC0-inf, mean, free DGLA, baseline-corrected plasma",[1]; 2000 mg single dose,26877.0 ng·h/mL
same,"AUC0-inf/Dose, mean, free DGLA, baseline-corrected plasma",[1]; 2000 mg single dose,13.44 h/kL
same,"AUC0-inf/Dose, mean, total DGLA, baseline-corrected plasma",[1]; 2000 mg single dose,1138.25 h/kL
same,"CL/F, mean, free DGLA, baseline-corrected plasma",[1]; 2000 mg single dose,0.1339 kL/h
same,"Cmax, mean, free DGLA, baseline-corrected plasma",[1]; 2000 mg single dose,2074.0 ng/mL
same,"Cmax/Dose, mean, free DGLA, baseline-corrected plasma",[1]; 2000 mg single dose,1.037 kL⁻¹
same,"Cmax/Dose, mean, total DGLA, baseline-corrected plasma",[1]; 2000 mg single dose,8.867 kL⁻¹
same,"λz, mean, free DGLA, baseline-corrected plasma",[1]; 2000 mg single dose,0.0200 h⁻¹
same,"λz, mean, total DGLA, baseline-corrected plasma",[1]; 2000 mg single dose,0.0084 h⁻¹
same,"AUC0-24, mean, free DGLA, baseline-corrected plasma",[1]; 4000 mg single dose,9436.8 ng·h/mL
same,"AUC0-24/Dose, mean, free DGLA, baseline-corrected plasma",[1]; 4000 mg single dose,2.36 h/kL
same,"AUC0-24/Dose, mean, total DGLA, baseline-corrected plasma",[1]; 4000 mg single dose,109.44 h/kL
same,"AUC0-inf, mean, free DGLA, baseline-corrected plasma",[1]; 4000 mg single dose,17113.6 ng·h/mL
same,"AUC0-inf/Dose, mean, free DGLA, baseline-corrected plasma",[1]; 4000 mg single dose,4.28 h/kL
same,"AUC0-inf/Dose, mean, total DGLA, baseline-corrected plasma",[1]; 4000 mg single dose,1493.38 h/kL
same,"CL/F, mean, free DGLA, baseline-corrected plasma",[1]; 4000 mg single dose,0.2420 kL/h
same,"Cmax, mean, free DGLA, baseline-corrected plasma",[1]; 4000 mg single dose,3021.8 ng/mL
same,"Cmax/Dose, mean, free DGLA, baseline-corrected plasma",[1]; 4000 mg single dose,0.755 kL⁻¹
same,"Cmax/Dose, mean, total DGLA, baseline-corrected plasma",[1]; 4000 mg single dose,6.471 kL⁻¹
same,"λz, mean, free DGLA, baseline-corrected plasma",[1]; 4000 mg single dose,0.0603 h⁻¹
same,"λz, mean, total DGLA, baseline-corrected plasma",[1]; 4000 mg single dose,0.0102 h⁻¹
same,half-life,[1]; 500 mg single dose,206 h
same,Tmax,"[1]; 500 mg single dose, read-out: tmax, median, free DGLA, baseline-corrected plasma",4 h
same,half-life,[1]; 1000 mg single dose,28.3 h
same,Tmax,"[1]; 1000 mg single dose, read-out: tmax, median, free DGLA, baseline-corrected plasma",4 h
same,half-life,[1]; 2000 mg single dose,57.3 h
same,Tmax,"[1]; 2000 mg single dose, read-out: tmax, median, free DGLA, baseline-corrected plasma",4 h
same,half-life,[1]; 4000 mg single dose,67.5 h
same,Tmax,"[1]; 4000 mg single dose, read-out: tmax, median, free DGLA, baseline-corrected plasma",4 h
same,Tmax,"[1]; single dose 500-4000 mg, read-out: median time to maximum concentration (Tmax), free DGLA",4 h
same,"dose dependence of mean baseline-corrected Cmax and AUC0-24, free and total DGLA",[1]; single dose 500-4000 mg,increased in a linear manner
same,"AUC0-24, mean, free DGLA, baseline-corrected plasma",[2]; fasted,3998.5 ng·h/mL
same,"AUC0-24/Dose, mean, free DGLA, baseline-corrected plasma",[2]; fasted,4.00 h/kL
same,"AUC0-24/Dose, mean, total DGLA, baseline-corrected plasma",[2]; fasted,215.37 h/kL
same,"AUC0-inf, mean, free DGLA, baseline-corrected plasma",[2]; fasted,218955.6 ng·h/mL
same,"AUC0-inf/Dose, mean, free DGLA, baseline-corrected plasma",[2]; fasted,218.96 h/kL
same,"CL/F, mean, free DGLA, baseline-corrected plasma",[2]; fasted,0.1866 kL/h
same,"Cmax, mean, free DGLA, baseline-corrected plasma",[2]; fasted,1602.8 ng/mL
same,"Cmax/Dose, mean, free DGLA, baseline-corrected plasma",[2]; fasted,1.603 kL⁻¹
same,"Cmax/Dose, mean, total DGLA, baseline-corrected plasma",[2]; fasted,15.750 kL⁻¹
same,"λz, mean, free DGLA, baseline-corrected plasma",[2]; fasted,0.0487 h⁻¹
same,"λz, mean, total DGLA, baseline-corrected plasma",[2]; fasted,0.0136 h⁻¹
same,"AUC0-24, mean, free DGLA, baseline-corrected plasma",[2]; fed,2102.7 ng·h/mL
same,"AUC0-24/Dose, mean, free DGLA, baseline-corrected plasma",[2]; fed,2.10 h/kL
same,"AUC0-24/Dose, mean, total DGLA, baseline-corrected plasma",[2]; fed,117.39 h/kL
same,"AUC0-inf, mean, free DGLA, baseline-corrected plasma",[2]; fed,29150.8 ng·h/mL
same,"AUC0-inf/Dose, mean, free DGLA, baseline-corrected plasma",[2]; fed,29.15 h/kL
same,"CL/F, mean, free DGLA, baseline-corrected plasma",[2]; fed,0.1658 kL/h
same,"Cmax, mean, free DGLA, baseline-corrected plasma",[2]; fed,520.2 ng/mL
same,"Cmax/Dose, mean, free DGLA, baseline-corrected plasma",[2]; fed,0.520 kL⁻¹
same,"Cmax/Dose, mean, total DGLA, baseline-corrected plasma",[2]; fed,10.317 kL⁻¹
same,"λz, mean, free DGLA, baseline-corrected plasma",[2]; fed,0.0403 h⁻¹
same,"λz, mean, total DGLA, baseline-corrected plasma",[2]; fed,0.0805 h⁻¹
same,"mean baseline-corrected AUC0-24, total DGLA vs free DGLA",[2]; fasted,~54 fold
same,"mean baseline-corrected Cmax, total DGLA vs free DGLA",[2]; fasted,~10 fold
same,"mean baseline-corrected AUC0-24, total DGLA vs free DGLA",[2]; fed,~56 fold
same,"mean baseline-corrected Cmax, total DGLA vs free DGLA",[2]; fed,~20 fold
same,half-life,[2]; fasted,28.3 h
same,Tmax,[2]; fasted,4 h
same,half-life,[2]; fed,141 h
same,Tmax,[2]; fed,5 h
same,free DGLA Cmax occurred sooner under fasted than fed conditions (median),[2]; single 1000-mg dose,1 h
same,higher rate and extent of total DGLA absorption under fasted conditions (mean Cmax and AUC0-24),[2]; single 1000-mg dose,approximately 50%
same,"mean baseline-corrected free DGLA Cmax, fasted vs fed",[2]; single 1000-mg dose,about 3 fold
same,"mean free DGLA baseline-corrected AUC0-24, fasted vs fed",[2]; single 1000-mg dose,about 2 fold
same,"total DGLA mean baseline-corrected AUC0-24, fasted vs fed",[2]; single 1000-mg dose,about 1.8 fold
same,"total DGLA mean baseline-corrected Cmax, fasted vs fed",[2]; single 1000-mg dose,about 1.5 fold
same,total DGLA tmax occurred sooner under fasted than fed conditions,[2]; single 1000-mg dose,about 50%
